Target: T1, Monocarboxylate transporter 4 (Homo sapiens) (UniProt O15427)
T1 sequence (whole entry): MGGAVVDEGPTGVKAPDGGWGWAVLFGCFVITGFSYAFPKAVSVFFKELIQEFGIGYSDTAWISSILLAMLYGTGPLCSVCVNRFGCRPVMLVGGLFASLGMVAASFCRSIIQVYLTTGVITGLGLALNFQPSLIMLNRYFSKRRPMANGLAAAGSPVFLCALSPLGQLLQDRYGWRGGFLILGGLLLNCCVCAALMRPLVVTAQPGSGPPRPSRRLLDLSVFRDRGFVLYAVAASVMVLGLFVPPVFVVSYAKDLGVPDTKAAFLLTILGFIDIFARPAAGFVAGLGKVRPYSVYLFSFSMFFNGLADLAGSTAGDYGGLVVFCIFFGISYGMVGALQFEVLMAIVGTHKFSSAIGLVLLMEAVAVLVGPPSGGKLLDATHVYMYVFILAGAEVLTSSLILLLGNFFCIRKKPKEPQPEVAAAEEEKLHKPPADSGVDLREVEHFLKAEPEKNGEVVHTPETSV
Assay: Substrate uptake by the monocarboxylate transporter 4 (MCT4, SLC16A3) as assessed by a sensor pH-sensitive genetically encoded fluorescent sensor (pHAxensor) in HEK-293 JumpIN-SLC16A3 cells (PubChem AID: 1794833)
Assay type: functional, cell-based
Conditions: HEK293

**Q.** With `CC(O)C(=O)O` (stereo unspecified) as the compound, how does the proof of principle read?
**A.** Substrate. In Comparison To Wild-Type And Not Induced Cells, Cells With Induced Slc16A3 Expression Showed A Specific Transporter Activity, Upon Substrate Addition, Detected As Decrease Of Intracellular Ph, Recorded As Quenching Of The Sensor Fluorescence Signal.

Reference: ChEMBL document CHEMBL5209565, “pH biosensor based assay for SLC16A3 using HEK-293 SLC16A3 OE cells” (2022)
